Measured values: patent US20220041538A1, “CA[…] ACID AND SALTS THEREOF” (EMERALD HEALTH PHARMACEUTICALS INC, priority 2018, published 2022)
Entries after “also recorded” stand apart in the source; their conditions may differ. Where two headings read alike, the source gives them in different places.

Key:
PPARγ = target: T1, PPARγ (Homo sapiens, UniProt P37231); assay: PolarScreen PPAR Competitor Assay (PPARγ binding, fluorescence polarization)
T1 sequence (P37231 238-505 limits assumed): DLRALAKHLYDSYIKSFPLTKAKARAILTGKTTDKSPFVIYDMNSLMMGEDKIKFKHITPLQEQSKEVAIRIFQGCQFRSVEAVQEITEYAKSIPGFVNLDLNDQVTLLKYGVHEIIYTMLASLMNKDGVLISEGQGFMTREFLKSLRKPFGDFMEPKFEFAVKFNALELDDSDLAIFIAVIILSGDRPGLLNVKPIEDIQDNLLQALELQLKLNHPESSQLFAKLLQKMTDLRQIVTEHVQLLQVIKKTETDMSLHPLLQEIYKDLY
Experimental: PPARγ binding activity was determined by using PolarScreen™ PPAR Competitor Assay kit (Life Technologies), according to the manufacturer's specifications. The PolarScreen™ PPAR Competitor Assay is a binding assay for determining IC50 values of compounds that bind to PPARγ.
Concentration of the compound of formula I and salts of formula II resulting in a half maximal shifts in polarization value determines the IC50.

3NP-intoxicated mice = assay: 3NP murine model of Huntington's disease, behavioral score; assay type: in vivo; conditions: oral and intraperitoneal; I 10 mg/Kg both routes; sodium salt 30 mg/Kg oral, 10 mg/Kg i.p.
Experimental: Mice were subjected to behavioral tests for determining their neurological status after the treatment with oral cannabigerol quinone acid (I) (10 mg/Kg dissolved in sesame oil) and after intraperitoneal delivery (10 mg/Kg dissolved in ethanol/cremophor/saline). Hind limb clasping, Locomotor activity, and kyphosis were rated from 0 to 2 based on severity: a score of 0 typically indicates normal function and 2 seriously affected.
Mice were subjected to behavioral tests for determining their neurological status after the treatment with oral sodium salt of the cannabigerol quinone acid (30 mg/Kg dissolved saline) and after intraperitoneal delivery (10 mg/Kg dissolved in saline). Hind limb clasping, Locomotor activity, and kyphosis were rated from 0 to 2 based on severity: a score of 0 typically indicates normal function and 2 seriously affected. […]
Lesions of the striatum were induced with 3-NP in adult (16-week-old; 30 g) male C57BL/6 mice (Harlan Ibérica, Barcelona, Spain). […] We evaluated the general locomotor activity, the hindlimb clasping and dystonia, and the truncal dystonia. […]

IL-6 = assay: Real-time quantitative PCR of striatum, 3NP model, IL-6; conditions: 3NP mice vs 3NP+Vehicle; I 10 mg/kg oral and i.p.; IIe 30 mg/kg oral, 10 mg/Kg i.p.
Experimental: (§1) Expression levels were calculated using the 2^−ΔΔCt method. Values are expressed as means±SEM for 3 animals per group.
(§2) Total RNA was isolated from striata (3NP model) using RNeasy Lipid Tissue Mini Kit (Qiagen, GmbH). The total amount of RNA extracted was quantitated by spectrometry at 260 nm and its purity from the ratio between the absorbance values at 260 and 280 nm. Genomic DNA was removed to eliminate DNA contamination. Single-stranded complementary DNA was synthesized from up to 1 μg of total RNA (pool from at least 3 animals per group) using iScript™ cDNA Synthesis Kit (Bio-Rad, Hercules, Calif., USA). The reaction mixture was kept frozen at −20° C. until enzymatic amplification. The iQ™ SYBR Green Supermix (Bio-Rad) was used to quantify mRNA levels for TNF-α and IL-6. Real-time PCR was performed using a CFX96 Real-Time PCR Detection System (Bio-Rad). The GAPDH housekeeping gene was used to standardize the mRNA expression levels in every sample. Expression levels were calculated using the 2^−ΔΔCt method.

6-OHDA challenged mice = assay: 6-OHDA murine model of Parkinson's disease (pole test, cylinder rearing test); assay type: in vivo; conditions: oral or intraperitoneal, 14 days
Experimental: C57BL/6 mice were unilaterally injected intracerebroventricullarly with 6-hydroxydopamine (6-OHDA) or saline (control mice) and subjected to chronic intraperitoneal treatment with cannabigerol quinone acid (1) (oral […] in sesame oil, and intraperitoneal 10 mg/Kg in Tween80/Saline ( 1/16)) or vehicle (14 days), starting 16 h after the 6-OHDA injection. SHAM group corresponds to mice subjected to the surgical manipulation without injection of 6-OHDA. Motor coordination was evaluated by rotarod performance and motor activity was evaluated using a computer-aided actimeter. A: pole test results after oral treatment, B: cylinder rearing test results after oral treatment, C: pole test results after intraperitoneal treatment, D: cylinder rearing test results after intraperitoneal treatment.
Motor coordination was evaluated by rotarod performance and motor activity was evaluated using a computer-aided actimeter. A: pole test results after oral treatment, B: cylinder rearing test results after oral treatment, C: pole test results after intraperitoneal treatment, D: cylinder rearing test results after intraperitoneal treatment.
C57BL/6 mice pretreated intracerebroventricularly were anesthetized with an intraperitoneal injection of 200 mg/Kg of 2,2,2-tribromoethanol (Sigma-Aldrich) and placed in a stereotaxic frame with a mouse adapter (David Kopf Instruments, Tujunga, Calif., USA). […]
The pole test was used to detect bradykinesia and motor and cylinder rearing test to evaluate sensory-motor deficits in PD mice. For Pole test mice were placed head-upward on the top of a vertical rough-surfaced pole (diameter 8 mm; height 55 cm) and the time until animals descended to the floor was recorded with a maximum duration of 90 s. […] For Cylinder Rearing Test (CRT) the initial forepaw (left, right, or both) preference after placing the mouse in a methacrylate transparent cylinder of 15.5 cm in diameter and 12.7 cm in height was measured. […]

[1] = tested on: striatum of 3NP-intoxicated mice; assay: Histological analysis of striatum in 3NP model (Nissl staining, Iba-1 immunostaining); assay type: in vivo; conditions: oral and intraperitoneal
Source text: Loss of neurons in the striatum (Nissl staining) and Iba1 (microglia marker) were detected by immunostaining in the coronal sections of striatum of mice treated with vehicle, 3NP+ vehicle, 3NP+ compound I (oral and intraperitoneal). Quantification of Nissl staining (A) and Iba1 (B) positive cells in the mouse striatum. Total average number of neurons and microglia is shown.
Quantification of Nissl staining (A) and Iba1 (B) positive cells in the mouse striatum. Total average number of neurons and microglia is shown.
Brains from 3NP model were fixed in 4% paraformaldehyde and 5-μm-thick sections for Nissl staining and immunohistochemical analysis of Iba-1, a marker of microglial cells. For immunohistochemistry sections were incubated overnight at 4° C. with monoclonal anti-mouse Iba-1 antibody (Millipore, Mass., USA) used at 1/50 dilution. After incubation with the corresponding primary antibody, sections were washed in 0.1 M PBS and incubated O/N at 4° C. with goat anti-mouse (Millipore, Mass., USA) secondary antibody. […] Negative control sections were obtained using the same protocol with omission of the primary antibody. All sections for each immunohistochemical procedure were processed at the same time and under the same conditions. […]

TNFα = assay: Real-time quantitative PCR of striatum, 3NP model, TNFα; conditions: 3NP mice vs 3NP+Vehicle; I 10 mg/kg oral and i.p.; IIe 30 mg/kg oral, 10 mg/Kg i.p.
Experimental: as §1, §2

Nrf2 = conditions: cited from earlier work

| SMILES | Remaining fluorescence polarization (%) (PPARγ; compound concentration 0.01 ∝M) | Remaining fluorescence polarization (%) (PPARγ; compound concentration 0.05 ∝M) | Remaining fluorescence polarization (%) (PPARγ; compound concentration 0.1 ∝M) | Remaining fluorescence polarization (%) (PPARγ; compound concentration 0.5 ∝M) | Remaining fluorescence polarization (%) (PPARγ; compound concentration 1 ∝M) | Remaining fluorescence polarization (%) (PPARγ; compound concentration 5 ∝M) | Remaining fluorescence polarization (%) (PPARγ; compound concentration 10 ∝M) | Remaining fluorescence polarization (%) (PPARγ; compound concentration 25 ∝M) | Remaining fluorescence polarization (%) (PPARγ; compound concentration 50 ∝M) | clinical symptoms induced by 3-NP intoxication (behavioral score: hind limb clasping, locomotor activity, kyphosis) (3NP-intoxicated mice) | gene expression of IL-6 in striatum (IL-6) | bradykinesia (pole test) (6-OHDA challenged mice) | clinical symptoms in 6-OH-DA challenged mice (6-OHDA challenged mice) | motor deficit (cylinder rearing test) (6-OHDA challenged mice) | reactive microgliosis (Iba-1+ cells) [1] | striatal neurons (Nissl staining) against 3NP toxicity [1] | gene expression of TNFα in striatum (TNFα) | Nrf2 activation (electrophilic activity) (Nrf2) | Nrf2 activation (electrophilic activity) (Nrf2; listed as CBG-Q) |
| --- | --- | --- | --- | --- | --- | --- | --- | --- | --- | --- | --- | --- | --- | --- | --- | --- | --- | --- | --- |
| CCCCCC1=C(C(=O)O)C(=O)C(C/C=C(\C)CCC=C(C)C)=C(O)C1=O [I, cannabigerol quinone acid] | 97.8 | 97.3 | 87.3 | 78.2 | 53.3 | 20.7 | 16.5 | 24.4 | 34.4 | clearly alleviates the clinical symptoms | down regulated; also recorded: attenuated the up-regulation | attenuated | alleviates clinical symptoms | attenuated | prevented the induction of reactive microgliosis | preservation of striatal neurons | down regulated; also recorded: attenuated the up-regulation |  |  |
| CCCCCC1=CC(=O)C(C/C=C(\C)CCC=C(C)C)=C(O)C1=O [VCE-003, cannabigerol hydroxy-quinone] |  |  |  |  |  |  |  |  |  |  |  |  |  |  |  |  |  | electrophilic (Nrf2 activation) | activates the transcription factor Nrf2 |
